# Patent US11708562B2, “Differentiation of human embryonic stem cells” (Janssen Biotech, Inc., priority 2006, dated 2023)
# System: H9P33, H9P44 and H9P48 cells
# Assay: Microarray analysis of definitive endoderm on MEFs vs MATRIGEL +/- Wnt-3A (Table VI)
# Conditions: DE treatment in low serum
# Protocol: Controls for each group included cells plated on […]-coated dishes and cultured in MEF-conditioned medium or cells plated on MEFs and cultured in ES medium. All groups contained three biological replicates and each biological replicate was repeated on two separate gene chips.
# Sample preparation, hybridization, and image analysis were performed according to the Affymetrix Human Genome U133 Plus 2.0 Array. Following normalization and a log transformation, data analysis was performed using OmniViz® software (MA) and […] (VizXLabs, WA). Significant differences in gene expression between the samples were evaluated using analysis of variance and an F-test with adjusted P-value (Benjamini and Hochberg correction) of ≤0.05. Only genes with a present call in at least one group were included in the analysis.
substance,measurement,setting,value
Activin A: a member of the TGFβ superfamily; growth factor (R&D Systems) used to differentiate human embryonic stem cells,"mean normalized intensity (log format), Human (clone HSY3RR) neuropeptide Y receptor (NPYR) mRNA",on MATRIGEL,1.775
same,"mean normalized intensity (log format), Human DNA sequence from clone RP1-181C24 on chromosome 6p11.1-12.2 (3 end of the BMP5 gene)",on MATRIGEL,−3.723
same,"mean normalized intensity (log format), Human Fritz mRNA, complete cds",on MATRIGEL,0.4366
same,"mean normalized intensity (log format), Human dipeptidyl peptidase IV (CD26) mRNA",on MATRIGEL,−3.611
same,"mean normalized intensity (log format), Human glycophorin HeP2 mRNA, partial cds",on MATRIGEL,−0.8435
same,"mean normalized intensity (log format), Human link protein mRNA, complete cds",on MATRIGEL,−1.94
same,"mean normalized intensity (log format), Human mRNA for alpha-1 type II collagen",on MATRIGEL,−2.8736
same,"mean normalized intensity (log format), Human mRNA for apolipoprotein AI (apo AI)",on MATRIGEL,0.2151
same,"mean normalized intensity (log format), Human prostatic secretory protein 57 mRNA",on MATRIGEL,−3.013
same,"mean normalized intensity (log format), KIAA0878 protein",on MATRIGEL,1.1189
same,"mean normalized intensity (log format), KIAA1462 protein",on MATRIGEL,−3.846
same,"mean normalized intensity (log format), MCP-1 = monocyte chemotactic protein",on MATRIGEL,−2.276
same,"mean normalized intensity (log format), Rho GDP dissociation inhibitor (GDI) alpha",on MATRIGEL,−1.544
same,"mean normalized intensity (log format), WAS protein family, member 2",on MATRIGEL,−2.187
same,"mean normalized intensity (log format), collagen, type IX, alpha 2",on MATRIGEL,1.27
same,"mean normalized intensity (log format), collagen, type VI, alpha 1",on MATRIGEL,−1.418
same,"mean normalized intensity (log format), glycophorin B (includes Ss blood group)",on MATRIGEL,−2.852
same,"mean normalized intensity (log format), hepatocyte nuclear factor 4, alpha",on MATRIGEL,−4.266
same,"mean normalized intensity (log format), homeo box HB9",on MATRIGEL,−1.656
same,"mean normalized intensity (log format), hypothetical protein FLJ21032",on MATRIGEL,0.3557
same,"mean normalized intensity (log format), hypothetical protein FLJ23091",on MATRIGEL,0.3234
same,"mean normalized intensity (log format), hypothetical protein FLJ23403",on MATRIGEL,−1.456
same,"mean normalized intensity (log format), matrix metalloproteinase 14 (membrane-inserted)",on MATRIGEL,−2.057
same,"mean normalized intensity (log format), microfibrillar-associated protein 4",on MATRIGEL,0.06379
same,"mean normalized intensity (log format), myristoylated alanine-rich protein kinase C substrate (MARCKS, 80K-L)",on MATRIGEL,−0.7172
same,"mean normalized intensity (log format), neuropilin 1",on MATRIGEL,−1.623
same,"mean normalized intensity (log format), noggin",on MATRIGEL,−1.636
same,"mean normalized intensity (log format), phorbolin-like protein MDS019",on MATRIGEL,−1.118
same,"mean normalized intensity (log format), solute carrier family 16 (monocarboxylic acid transporters), member 3",on MATRIGEL,−0.06641
same,"mean normalized intensity (log format), splicing factor, arginineserine-rich 5",on MATRIGEL,0.7481
same,"mean normalized intensity (log format), stanniocalcin 1",on MATRIGEL,2.411
same,"mean normalized intensity (log format), 6-phosphofructo-2-kinasefructose-2,6-biphosphatase 4",on MEFS,1.6
same,"mean normalized intensity (log format), Cluster Incl. AB028021: Homo sapiens HNF-3beta mRNA for hepatocyte nuclear factor-3 beta",on MEFS,4.117
same,"mean normalized intensity (log format), ESTs, Highly similar to IHH_HUMAN INDIAN HEDGEHOG PROTEIN PRECURSOR (H. sapiens)",on MEFS,0.5905
same,"mean normalized intensity (log format), ESTs, Moderately similar to JE0284 Mm-1 cell derived transplantability-associated protein 1b (H. sapiens)",on MEFS,4.222
same,"mean normalized intensity (log format), ESTs, Weakly similar to FCE2 MOUSE LOW AFFINITY IMMUNOGLOBULIN EPSILON FC RECEPTOR (M. musculus)",on MEFS,3.48
same,"mean normalized intensity (log format), ESTs, Weakly similar to the 331st table hypothetical protein KIAA0555 (H. sapiens)",on MEFS,0.4436
same,"mean normalized intensity (log format), G protein-coupled receptor",on MEFS,5.053
same,"mean normalized intensity (log format), G protein-coupled receptor 49",on MEFS,2.505
same,"mean normalized intensity (log format), Homo sapiens HNF-3beta mRNA for hepatocyte nuclear factor-3 beta",on MEFS,2.825
same,"mean normalized intensity (log format), Homo sapiens KIAA0878 protein (KIAA0878), mRNA",on MEFS,5.654
same,"mean normalized intensity (log format), Homo sapiens Kell blood group (KEL), mRNA",on MEFS,−0.3839
same,"mean normalized intensity (log format), Homo sapiens MLL septin-like fusion (MSF), mRNA",on MEFS,−1.5
same,"mean normalized intensity (log format), Homo sapiens Mix-like homeobox protein 1 (MILD1) mRNA",on MEFS,0.922
same,"mean normalized intensity (log format), Homo sapiens Rho GTPase activating protein 6 (ARHGAP6), transcript variant 2, mRNA",on MEFS,−1.285
same,"mean normalized intensity (log format), Homo sapiens TBX3-iso protein (TBX3-iso), mRNA",on MEFS,1.07
same,"mean normalized intensity (log format), Homo sapiens angiopoietin 2 (ANGPT2), mRNA",on MEFS,0.5968
same,"mean normalized intensity (log format), Homo sapiens ankyrin-like with transmembrane domains 1 (ANKTM1), mRNA",on MEFS,2.819
same,"mean normalized intensity (log format), Homo sapiens apolipoprotein A-I (APOA1), mRNA",on MEFS,2.469
same,"mean normalized intensity (log format), Homo sapiens apolipoprotein A-II (APOA2), mRNA",on MEFS,4.469
same,"mean normalized intensity (log format), Homo sapiens arylsulfatase E (chondrodysplasia punctata 1) (ARSE), mRNA",on MEFS,3.184
same,"mean normalized intensity (log format), Homo sapiens atrophin-1 interacting protein 1; activin receptor interacting protein 1 (KIAA0705), mRNA",on MEFS,−1.32
same,"mean normalized intensity (log format), Homo sapiens beta-site APP cleaving enzyme (BACE) mRNA",on MEFS,1.754
same,"mean normalized intensity (log format), Homo sapiens cDNA FLJ11550 fis, clone HEMBA1002970",on MEFS,4.216
same,"mean normalized intensity (log format), Homo sapiens cDNA FLJ12993 fis, clone NT2RP3000197",on MEFS,2.069
same,"mean normalized intensity (log format), Homo sapiens cDNA FLJ13221 fis, clone NT2RP4002075",on MEFS,1.31
same,"mean normalized intensity (log format), Homo sapiens cardiac ventricular troponin C mRNA",on MEFS,1.4377
same,"mean normalized intensity (log format), Homo sapiens cartilage linking protein 1 (CRTL1), mRNA",on MEFS,−0.8052
same,"mean normalized intensity (log format), Homo sapiens cell adhesion molecule with homology to L1CAM (close homologue of L1) (CHL1), mRNA",on MEFS,−2.5002
same,"mean normalized intensity (log format), Homo sapiens chromosome 19, cosmid R31181",on MEFS,0.2239
same,"mean normalized intensity (log format), Homo sapiens clone 23736 mRNA sequence",on MEFS,4.507
same,"mean normalized intensity (log format), Homo sapiens cryptic mRNA, complete cds",on MEFS,−0.6735
same,"mean normalized intensity (log format), Homo sapiens cystatin SA (CST2), mRNA",on MEFS,2.1671
same,"mean normalized intensity (log format), Homo sapiens cystatin SN (CST1), mRNA",on MEFS,4.64
same,"mean normalized intensity (log format), Homo sapiens cytidine deaminase (CDA), mRNA",on MEFS,−1.67
same,"mean normalized intensity (log format), Homo sapiens dual specificity phosphatase 4 (DUSP4), mRNA",on MEFS,4.122
same,"mean normalized intensity (log format), Homo sapiens fibroblast growth factor 8 (androgen-induced) (FGF8), mRNA",on MEFS,0.01583
same,"mean normalized intensity (log format), Homo sapiens fibroblast growth factor 17 (FGF17), mRNA",on MEFS,2.4872
same,"mean normalized intensity (log format), Homo sapiens frizzled-related protein (FRZB), mRNA",on MEFS,3.676
same,"mean normalized intensity (log format), Homo sapiens gastrin-releasing peptide (GRP), mRNA",on MEFS,0.5098
same,"mean normalized intensity (log format), Homo sapiens glycophorin B (includes Ss blood group) (GYPB), mRNA",on MEFS,0.1803
same,"mean normalized intensity (log format), Homo sapiens glycophorin E (GYPE), mRNA",on MEFS,−1.501
